Several values for one entry are separate records, joined by “and”; a condition that tells them apart may be missing. Equal values may be shown once.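 96-well plates; 48 h exposure; 5 concentrations. Endpoints by linear interpolation between flanking doses. Not reached: highest tested concentration assigned. Abbreviation: GI50, concentration required for 50% inhibition of growth.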 Activity calls are given as the source filed them. Cut-off read from the data, not from the text of the source: active = GI50 up to about 1.1 µM and inactive = higher.
Columns and labels:
Assay in all cases: NCI tumour cell line growth inhibition, 48 h
MOLT-4 = test system: MOLT-4
CCRF-CEM = test system: CCRF-CEM
UACC-257 = test system: UACC-257
SF-539 = test system: SF-539
SNB-75 = test system: SNB-75
TK-10 = test system: TK-10
A549 = test system: A549
SW-620 = test system: SW-620
ACHN = test system: ACHN
SF-295 = test system: SF-295
HOP-92 = test system: HOP-92
NCI-H522 = test system: NCI-H522
HCT-116 = test system: HCT-116
OVCAR-5 = test system: OVCAR-5
HT-29 = test system: HT-29
COLO 205 = test system: COLO 205
KM12 = test system: KM12
SK-MEL-5 = test system: SK-MEL-5
OVCAR-4 = test system: OVCAR-4

Measured: GI50

Fc1ccc2c(c1)SC1Oc3ccccc3-c3c1c-2nn3-c1ccccc1 (stereo not drawn)
inactive: MOLT-4 > 100 µM | CCRF-CEM > 100 µM | UACC-257 > 100 µM | SF-539 > 100 µM | SNB-75 86.7 µM | TK-10 > 100 µM | A549 > 100 µM | SW-620 > 100 µM | ACHN > 100 µM | SF-295 > 100 µM | HOP-92 > 100 µM | NCI-H522 37.9 µM | HCT-116 66.8 µM | OVCAR-5 > 100 µM | HT-29 > 100 µM | COLO 205 > 100 µM | KM12 > 100 µM

Cc1ccc(S(=O)(=O)c2ccccc2[N+](=O)[O-])cc1
inactive: MOLT-4 66.7 µM | CCRF-CEM > 100 µM | UACC-257 72.6 µM | SF-539 > 100 µM | SNB-75 > 100 µM | TK-10 > 100 µM | A549 > 100 µM | SW-620 > 100 µM | ACHN > 100 µM | SF-295 > 100 µM | SK-MEL-5 52.1 µM | OVCAR-4 86.9 µM | HCT-116 66.8 µM | OVCAR-5 > 100 µM | HT-29 > 100 µM | KM12 > 100 µM

COC1OC(COC(C)=O)C(OC(C)=O)C(OC(C)=O)C1NC(=O)N(CCCl)N=O (stereo not drawn)
inactive: UACC-257 > 100 µM | SNB-75 47.1 µM and 34.4 µM | TK-10 > 100 µM | A549 > 100 µM and 82.4 µM | SW-620 > 100 µM | ACHN > 100 µM | SF-295 39.1 µM and 24.2 µM | NCI-H522 24.1 µM and 45.9 µM | SK-MEL-5 > 100 µM | OVCAR-4 > 100 µM | HCT-116 > 100 µM | OVCAR-5 > 100 µM | HT-29 > 100 µM | COLO 205 > 100 µM | KM12 > 100 µM

C[C@]12CC[C@@H]3c4ccc(O)cc4CC[C@H]3[C@@H]1CC[C@@H]2OC(=O)CCc1ccccc1
inactive: MOLT-4 17 µM | CCRF-CEM 22.5 µM | UACC-257 17.9 µM | SNB-75 15.1 µM | TK-10 18.5 µM | A549 22.3 µM | SW-620 23.3 µM | ACHN 18.7 µM | SF-295 19.3 µM | HOP-92 19.1 µM | NCI-H522 15.3 µM | SK-MEL-5 17.1 µM | OVCAR-4 17.5 µM | HCT-116 20.3 µM | OVCAR-5 44.4 µM | HT-29 19.6 µM | COLO 205 19.6 µM | KM12 27.7 µM

Clc1ccccc1C1=NN(c2ccccc2)C2c3cc(Br)ccc3OCC12 (stereo not drawn)
inactive: MOLT-4 96.4 µM | CCRF-CEM > 100 µM | UACC-257 > 100 µM | SF-539 > 100 µM | SNB-75 > 100 µM | TK-10 > 100 µM | A549 > 100 µM | SW-620 > 100 µM | ACHN > 100 µM | SF-295 > 100 µM | HOP-92 > 100 µM | NCI-H522 > 100 µM | HCT-116 > 100 µM | OVCAR-5 > 100 µM | HT-29 > 100 µM | COLO 205 > 100 µM | KM12 > 100 µM

COc1nc(O)nc2c1C(c1ccc([N+](=O)[O-])cc1)c1c(OC)nc(O)nc1O2
inactive: MOLT-4 > 100 µM | CCRF-CEM > 100 µM | UACC-257 > 100 µM | TK-10 > 100 µM | A549 > 100 µM | SW-620 > 100 µM | ACHN > 100 µM | SF-295 > 100 µM | NCI-H522 > 100 µM | SK-MEL-5 > 100 µM | OVCAR-4 > 100 µM | HCT-116 > 100 µM | OVCAR-5 > 100 µM | HT-29 > 100 µM | COLO 205 > 100 µM | KM12 > 100 µM

C/C(CC(=O)Nc1ccc(C)c(C)c1)=N\NC(N)=S
inactive: MOLT-4 > 100 µM | CCRF-CEM > 100 µM | UACC-257 > 100 µM | SF-539 > 100 µM | SNB-75 > 100 µM | TK-10 > 100 µM | A549 > 100 µM | SW-620 > 100 µM | ACHN > 100 µM | SF-295 > 100 µM | HOP-92 > 100 µM | NCI-H522 > 100 µM | SK-MEL-5 > 100 µM | HCT-116 > 100 µM | OVCAR-5 > 100 µM | HT-29 > 100 µM | COLO 205 > 100 µM | KM12 > 100 µM

CC(C)NCCC(O)c1cc2ccccc2o1 (stereo not drawn)
inactive: MOLT-4 20.4 µM | UACC-257 > 100 µM | SF-539 > 100 µM | SNB-75 7.67 µM | TK-10 > 100 µM | A549 > 100 µM | SW-620 > 100 µM | ACHN > 100 µM | SF-295 > 100 µM | HOP-92 > 100 µM | NCI-H522 > 100 µM | SK-MEL-5 > 100 µM | OVCAR-4 > 100 µM | HCT-116 > 100 µM | OVCAR-5 > 100 µM | HT-29 > 100 µM | COLO 205 > 100 µM | KM12 > 100 µM

COc1c(N2CCCCC2)c2c(=O)c3ccccc3oc2c2c3ccccc3n(C)c12
inactive: MOLT-4 54.8 µM | CCRF-CEM 64.3 µM | UACC-257 > 100 µM | SF-539 > 100 µM | SNB-75 > 100 µM | TK-10 > 100 µM | A549 > 100 µM | SW-620 > 100 µM | ACHN > 100 µM | SF-295 > 100 µM | HOP-92 > 100 µM | SK-MEL-5 > 100 µM | OVCAR-4 > 100 µM | HCT-116 53.1 µM | OVCAR-5 > 100 µM | HT-29 42.4 µM | COLO 205 26.2 µM | KM12 > 100 µM

Cc1cc(N(CCC#N)CCC#N)ccc1/C=C(\NC(=O)/C=C/c1ccccc1)C(=O)N=[N+]=[N-]
inactive: MOLT-4 > 100 µM | CCRF-CEM > 100 µM | UACC-257 > 100 µM | SF-539 52.5 µM | SNB-75 23 µM | TK-10 > 100 µM | A549 > 100 µM | SW-620 > 100 µM | ACHN > 100 µM | SF-295 17.2 µM | NCI-H522 30.4 µM | SK-MEL-5 > 100 µM | HCT-116 > 100 µM | OVCAR-5 > 100 µM | HT-29 > 100 µM | COLO 205 > 100 µM | KM12 2.91 µM

Cc1nc2c(=S)n(C)ncc2[nH]1
inactive: MOLT-4 > 100 µM | CCRF-CEM > 100 µM | UACC-257 > 100 µM | SF-539 > 100 µM | SNB-75 > 100 µM | TK-10 > 100 µM | A549 > 100 µM | SW-620 > 100 µM | ACHN > 100 µM | SF-295 > 100 µM | NCI-H522 34 µM | SK-MEL-5 > 100 µM | OVCAR-4 > 100 µM | HCT-116 > 100 µM | OVCAR-5 > 100 µM | HT-29 > 100 µM | COLO 205 > 100 µM | KM12 > 100 µM
